Which melting point does the source give for CN(C)CCOc1cccc2cc(C(=O)Nc3ccccc3N)oc12 here?
The melting point was 108 to 118 °C.

With CCOC(=O)c1cc(O)c2cc3c(O)cc(C(=O)OCC)nc3c(N3CCCCCC3)c2n1 as the molecule, how does the melting point read?
The melting point was 301 to 302 °C.

With COCCOc1cc2ncc(C#N)c(Cl)c2cc1O as the molecule, how does the melting point read?
The melting point was 174 to 175 °C.

For COc1ccccc1-n1c(-c2sc(Nc3ccc(Cl)cc3)nc2-c2ccccc2)nc2ccccc2c1=O, which melting point is on record?
The melting point was 230 to 232 °C.

With Nc1ccc(Sc2ccccn2)cc1C(F)(F)F as the molecule, how does the melting point read?
Its melting point is 132 to 133 °C.

With CNC(=O)[C@H]1O[C@@H]1c1ccc(C)cc1 as the molecule, how does the melting point read?
Its melting point is 152 to 153 °C.

With CS(=O)(=O)Nc1ccc(C(N)=NO)cc1Oc1ccc(F)cc1F as the molecule, how does the melting point read?
Its melting point is 174 to 175 °C.

Which melting point does the source give for COC(=O)C1c2c(C)c(OC(=O)c3ccc([N+](=O)[O-])cc3)c(C)c(C)c2OC1(C)C (centres undefined) here?
Its melting point is 215 to 216 °C.

For CC12CC(C)(C1)C(=O)N(C(C)(C)C)C2=O, which melting point is on record?
Its melting point is 65 to 65.5 °C.

With COc1ccc(N2CCN(C(=O)C(C)(C)C3OCCc4ccccc43)CC2)cc1 (centres undefined) as the molecule, how does the melting point read?
Its melting point is 120 to 121 °C.

For CNc1nc(-c2ccc(F)cc2)n(-c2ccc(SC)cc2)c(=O)c1C#N, which melting point is on record?
Its melting point is 219 to 222 °C.

Which melting point does the source give for O=C1CCCC(CNC(=O)c2cc(O)ccc2OCC(F)(F)F)N1 (centres undefined) here?
The melting point was 156 to 158 °C.

For CCOC(=O)c1ncn2c1nc(N1CCOCC1)c1ccccc12, which melting point is on record?
The melting point was 165 °C.

Which melting point does the source give for O=C1OC(c2ccc(F)cc2)C(Cn2cncn2)(c2ccc(Cl)cc2Cl)O1 (centres undefined) here?
Its melting point is 191 to 192 °C.

With COc1cc(C(=O)CS(=O)(=O)c2ccccc2)ccc1Cc1cn(C(C)C(=O)N(C)C)c2ccc(C(=O)NCC3CCCC3)cc12 (centres undefined) as the molecule, how does the melting point read?
The melting point was 146 to 147 °C.

For NCCCCc1csc(-c2ccccn2)n1, which melting point is on record?
The melting point was 119 to 121 °C.

For Nc1cccc(C(=O)CN2CCN(c3ccc(CO)c(Cl)c3)CC2)c1, which melting point is on record?
The melting point was 174 to 180 °C.

For Cc1ccc(C2CCC(=NO)c3ccccc32)cc1 (centres undefined), which melting point is on record?
Its melting point is 97 to 101 °C.

For COC1CC2CCC1C2Nc1ccc([N+](=O)[O-])c2onnc12 (centres undefined), which melting point is on record?
The melting point was 178 to 180 °C.

For CC(CNCc1ccccc1O)NCc1ccccc1O (centres undefined), which melting point is on record?
The melting point was 57 to 58 °C.

Which melting point does the source give for CCC1(CC)Cc2cc(OCC(=O)O)c(Cl)c(Cl)c2C1=O here?
The melting point was 111 °C.

With O=C1C(=O)N(Cc2ccc(Br)cc2)c2ccc(S(=O)(=O)N3CCCC3COc3ccccc3)cc21 (centres undefined) as the molecule, how does the melting point read?
The melting point was 112 to 113 °C.

With CN(C)c1ccc(N2CCN(Cc3c[nH]c4ncccc34)CC2)cc1 as the molecule, how does the melting point read?
Its melting point is 199 to 201 °C.

For CS(=O)(=O)NCCC1(C[N+](=O)[O-])CCCCC1, which melting point is on record?
Its melting point is 86 to 88 °C.

Which melting point does the source give for CSc1ncc(Cc2cccs2)c(=O)[nH]1 here?
The melting point was 170 to 172 °C.

For COC(=O)C(=NO)c1ccccc1, which melting point is on record?
Its melting point is 151 to 153 °C.

For CCOC(=O)c1cnccc1CSc1nc(C)c(CC(=O)O)s1, which melting point is on record?
Its melting point is 139 to 141 °C.

For CN(C(=O)C1CCCCC1)c1cccc(-c2nc(=O)c3ccccc3s2)n1, which melting point is on record?
The melting point was 184 to 186 °C.

Which melting point does the source give for CN(C)S(=O)(=O)c1cc(-c2csc(=Nc3ccc(Cl)cc3)n2C)ccc1Cl here?
Its melting point is 184 °C.

For CC(C)C1=C(C#N)C(c2ccccc2Br)c2c(n[nH]c2CC#N)N1 (centres undefined), which melting point is on record?
The melting point was greater than 250 °C.

With CO/C=C1/C(=O)NC(=O)c2ccc(-n3cccc3)cc21 as the molecule, how does the melting point read?
The melting point was 272 to 273 °C.

For CCCC1CC1(C(=O)Nc1ccc(Br)cc1C)C(=O)OC (centres undefined), which melting point is on record?
The melting point was 60 °C.

For O=C1OC(=O)c2cc3ccc([N+](=O)[O-])cc3c3cccc1c23, which melting point is on record?
Its melting point is 290 °C.

For Nn1c(=O)c(=O)[nH]c2ccc3ccc([N+](=O)[O-])cc3c21, which melting point is on record?
Its melting point is greater than 240 °C.

For O=C(O)c1ccccc1C(=O)NNC(=S)Nc1ccccc1, which melting point is on record?
The melting point was 149 to 151 °C.

For Cc1cc(OCc2ccc(-c3ccc(OC(F)(F)F)cc3)nc2C)ccc1OC(C)(C)C(=O)O, which melting point is on record?
The melting point was 149 to 151 °C.

For Cc1sc(I)c(C)c1CO, which melting point is on record?
Its melting point is 118 to 120 °C.

With O=C(O)[C@@H]1CSC(c2ccccc2O)N1C(=O)CCBr (some centres undefined) as the molecule, how does the melting point read?
The melting point was 109 to 115 °C.

For COc1ccc(C(=O)N2CCCC2=O)cc1OCc1ccccc1, which melting point is on record?
Its melting point is 92 °C.

Which melting point does the source give for CCNC(=O)c1cc2c(Cl)ccc(-n3c(=O)cc(C(F)(F)F)n(C)c3=O)c2o1 here?
Its melting point is 225 to 226 °C.

Which melting point does the source give for CCOCc1cc2cc(Br)ccc2oc1=Nc1cccc(OC)c1 here?
Its melting point is 93 to 94 °C.

For COC(=O)C(CCCCN1C(=O)c2ccccc2C1=O)C(=O)OC, which melting point is on record?
Its melting point is 55 to 58 °C.

For COc1cc(NCCCO)c([N+](=O)[O-])cc1O, which melting point is on record?
Its melting point is 144 °C.

Which melting point does the source give for CCCCc1nnc(-c2ccc([N+](=O)[O-])cc2)o1 here?
The melting point was 68 to 70 °C.

For O=C1NN=C(c2ccc(C(F)(F)F)cc2)CC1C(F)(F)F (centres undefined), which melting point is on record?
Its melting point is 135 to 136 °C.

Which melting point does the source give for CC(C)(O)C#Cc1cccc(N)c1 here?
The melting point was 118 to 119 °C.

With Nc1cc(OCc2ccccc2)c(OCc2ccccc2)cc1C=C(Br)Br as the molecule, how does the melting point read?
The melting point was 95 to 98 °C.

Which melting point does the source give for ClCc1nc2ccccc2s1 here?
The melting point was 34 °C.

With O=C(C1CCCc2c1c1ccccc1n2Cc1ccccc1)N1CCCCC1 (centres undefined) as the molecule, how does the melting point read?
The melting point was 249 to 252 °C.

With COC(=O)C1=C(C)NC(C#N)=C(C(=O)OC)C1c1cccc2c(=O)c(C)c(-c3ccccc3)oc12 (centres undefined) as the molecule, how does the melting point read?
The melting point was 250 °C.

For COc1cc(Cl)cnc1OCC#Cc1cccc(OCC#N)n1, which melting point is on record?
Its melting point is 118 °C.

For COn1c(C)nc2cc(C(=O)c3ccccc3)ccc21, which melting point is on record?
The melting point was 67.7 °C.

For N#Cc1ccc(OCc2ccncc2)cc1F, which melting point is on record?
The melting point was 132 to 133 °C.

Which melting point does the source give for CCC1Oc2ccc(-c3nc4ccccn4c3C)cc2NC1=O (centres undefined) here?
Its melting point is 216 to 217 °C.

For COC(=O)N1CCc2onc(O)c2CC1, which melting point is on record?
Its melting point is 127 to 128 °C.

With Cc1ccc(S(=O)(=O)OCCOCn2cc(F)c(=O)[nH]c2=O)cc1 as the molecule, how does the melting point read?
Its melting point is 141 to 142 °C.

For Cc1ncc(-c2ccc(C(F)(F)F)cc2)c(NC2CCCCC2)n1, which melting point is on record?
The melting point was 220 to 225 °C.

With O=C(O)C(=O)CC(=O)c1cccn1Cc1ccccc1Br as the molecule, how does the melting point read?
Its melting point is 176 to 180 °C.

With Cc1cc2c(-c3ccccc3)c(CC#N)n(C)c(=O)c2cc1C as the molecule, how does the melting point read?
Its melting point is 186 to 188 °C.

With COc1ccc(C2CC(c3cccc(OC)c3)=NN2c2ccc(C(=O)O)cc2)cc1 (centres undefined) as the molecule, how does the melting point read?
Its melting point is 142 °C.

For O=C(O)c1cnc(Oc2ccccc2)s1, which melting point is on record?
The melting point was 172 to 173 °C.

With COc1ccc2c(c1)C(C(=O)Nc1c(C(C)C)cccc1C(C)C)c1cccnc1CO2 (centres undefined) as the molecule, how does the melting point read?
The melting point was 180 to 181 °C.

With COC(=O)COC(=O)C(Cl)=Cc1cc(-n2ncc(C(F)(F)F)c(C)c2=O)c(F)cc1Cl as the molecule, how does the melting point read?
The melting point was 88 to 91 °C.

For O=C(O)C(=O)c1ccc(OCCCOc2ccccc2)cc1, which melting point is on record?
Its melting point is 50 to 52 °C.

For CCCCc1nc(C(F)(F)F)c(C(=O)OCC)[nH]1, which melting point is on record?
The melting point was 51 to 53 °C.

With CCOC1=NC(OC)=NS(=O)(=O)N1C(C)C as the molecule, how does the melting point read?
Its melting point is 81 to 85 °C.

With COc1cc2c(cc1OCc1ccccc1)CCN(C(=O)c1ccccc1OC)C2=O as the molecule, how does the melting point read?
The melting point was 163 to 164 °C.

With O=C(O)c1cccc(-c2nc(-c3cccc(C(F)(F)F)c3)cs2)c1 as the molecule, how does the melting point read?
The melting point was 229 to 230 °C.

For CC1(C)OC(=O)Nc2ccc(-c3ccc(C#N)n3CC(=O)O)cc21, which melting point is on record?
The melting point was 207 to 209 °C.

With COc1ccc(CN(C)CCCc2ccc(NC(=O)c3cccc4c(=O)c5ccccc5[nH]c34)cc2)cc1OC as the molecule, how does the melting point read?
Its melting point is 112 °C.

Which melting point does the source give for C=CCCOc1ccc(CCCOC(=O)NS(=O)(=O)NCCOC(C)C)c(Oc2ncc(C(F)(F)F)cc2Cl)c1 here?
The melting point was 111 to 113 °C.

With N#Cc1ccc(C(Cc2ccc(C(F)(F)F)cn2)Cn2cncn2)cc1 (centres undefined) as the molecule, how does the melting point read?
Its melting point is 78 °C.

For Cc1cc(Br)cc(C)c1N([Si](C)(C)C)[Si](C)(C)C, which melting point is on record?
Its melting point is 47 to 52 °C.

With O=CNc1nc(S)n[nH]1 as the molecule, how does the melting point read?
Its melting point is 260 to 262 °C.
